Patent US7985731B2, “Sugar chain added GLP-1 peptide” (Otsuka Chemical Holdings Co., Ltd., priority 2007, dated 2011)

Tests used:
[1] = target: T1, mouse GLP-1 receptor (Mus musculus, UniProt O35659); assay: Test Example 6: ability to synthesize cAMP in mouse GLP-1 receptor-expressing CHO-K1 cells; type: cell-based
T1 construct: expressed in transfected cells
T1 sequence (O35659 22-463): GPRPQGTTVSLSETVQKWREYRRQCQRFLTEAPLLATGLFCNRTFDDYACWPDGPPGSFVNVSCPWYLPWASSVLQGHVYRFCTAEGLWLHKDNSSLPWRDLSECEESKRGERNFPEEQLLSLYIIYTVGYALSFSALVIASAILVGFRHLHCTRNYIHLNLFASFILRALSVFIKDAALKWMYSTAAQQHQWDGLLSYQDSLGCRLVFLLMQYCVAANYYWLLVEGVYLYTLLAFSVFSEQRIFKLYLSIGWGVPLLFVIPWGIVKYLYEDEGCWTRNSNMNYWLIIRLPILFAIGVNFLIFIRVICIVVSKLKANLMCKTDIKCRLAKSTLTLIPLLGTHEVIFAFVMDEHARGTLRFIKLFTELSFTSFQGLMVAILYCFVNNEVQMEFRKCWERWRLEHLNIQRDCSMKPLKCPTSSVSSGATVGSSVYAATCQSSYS
Protocol: 1. Construction of Mouse GLP-1 Receptor-Expressing Vector
A mouse GLP1 receptor sense primer (5′-[…]-3′) (SEQ ID NO: 152) and a mouse GLP-1 receptor antisense primer (5′-[…]-3′) (SEQ ID NO: 153) capable of binding to the 5′ and 3′ ends of mouse GLP-1 receptor cDNA were separately synthesized. PCR was performed using Ex Taq polymerase (TaKaRa) with cDNA (Clone ID: 40046534, Open Biosystems) as a template. Specifically, 50 μL in total of reaction solution consisting of 1 μL of template cDNA (10 ng/μL), 4 μL of 2.5 mM dNTPs, 1 μL of primer solution mixtures (each 50 μM), 5 μL of ×10 Ex Taq polymerase Buffer, 0.25 μL of Ex Taq polymerase and 38.75 μL of sterilized water was used and allowed to react by 94° C. for 1 minute; 94° C. for 45 seconds, 55° C. for 1 minute and 72° C. for 2 minutes (35 cycles); and 72° C. for 10 minutes. The PCR reaction product was electrophoresed on 1% agarose gel, and the cDNA fragment was purified using Wizard SV Gel and PCR Clean-up System (Promega) and treated with restriction enzymes (EcoRI and NheI) to obtain mouse GLP-1 receptor cDNA.
To efficiently obtain cells highly expressing a mouse GLP-1 receptor, a pIRES-gfp vector was used as an expression vector. This vector was prepared by inserting, to a vector pEGFP-N1 (Clontech), an IRES gene-containing DNA fragment obtained by the restriction enzyme treatment (Sal I and BamHI) of pIRESpuro2 (Clontech).
The mouse GLP-1 receptor cDNA fragment was inserted to pIRES-gfp to thereby obtain a mouse GLP-1 receptor-expressing vector mGLP-1R/pIRES-gfp. The DNA sequence of the obtained vector was confirmed using ABI3100-Avant (Applied Biosystems).
2. Preparation of Mouse GLP-1 Receptor-Expressing CHO-K1 Cells
CHO-K1 cells (ATCC catalog No. CCL-61) were transfected with the obtained mGLP-1R/pIRES-gfp using FuGENE (registered trademark) (Roche) according to the instruction manual. The transfected CHO-K1 cells were cultured in RPMI1640 medium (Wako Pure Chemical Industries) containing 10% FCS (Hyclone) and penicillin-streptomycin (SIGMA). Drug selection was conducted by the addition of 1.0 mg/ml G418 (Wako Pure Chemical Industries). The drug resistance cells were sorted with a cell sorter (EPICS ALTRA, Beckman Coulter) using a GFP expression level as an index. After the sorting, the limiting dilution method was conducted to obtain cells highly expressing GFP, namely, cells highly expressing a mouse GLP-1 receptor. The obtained cells were used as mouse GLP-1 receptor-expressing CHO-K1 cells in the experiment shown below.
3. Analysis of Agonist Effect of Oligosaccharide Chain Added GLP-1 Peptide (Ability to Synthesize cAMP)
The mouse GLP-1 receptor-expressing CHO-K1 cells prepared in the preceding paragraph 2 were used to evaluate the agonist effect of the oligosaccharide chain added GLP-1 peptide using the ability to synthesize cAMP as an index.
The mouse GLP-1 receptor-expressing CHO-K1 cells were suspended at a concentration of 5×10^5 cells/ml in RPMI1640 medium containing 10% FCS. The cell suspension was seeded at a concentration of 100 μL per well to a flat-bottomed 96-well plate (Falcon) and cultured at 5% CO2 at 37° C. for 16 hours. The culture supernatant was discarded. The oligosaccharide chain added GLP-1 peptide dissolved in Krebs Ringer bicarbonate Buffer containing 2.5 mM glucose was added at a concentration of 100 μL/well and cultured at 37° C. for 30 minutes. The culture supernatant was immediately discarded. The amount of cAMP synthesized in the mouse GLP-1 receptor-expressing CHO-K1 cells was measured using cAMP ELISA Kit (GE Healthcare or Cayman) and used as an index for the agonist effect of the oligosaccharide chain added GLP-1 peptide on mouse GLP-1 receptors.
GLP-1 increases intracellular cAMP concentrations through the binding to its receptor and promotes insulin secretion. Thus, the activity of the oligosaccharide chain added GLP-1 peptide was evaluated using the ability to synthesize cAMP as an index. […]

[2] = tested on: C57BL/6JJcl mice; assay: Test Example 7: Oral Glucose Tolerance Test (OGTT); type: in vivo; conditions: 9 nmol/kg intraperitoneal 30 minutes before glucose 1 mg/g oral
Protocol: After 30 minutes, a glucose solution was orally administered at a dose of 1 mg/g. Blood was collected from the orbits before the glucose administration and 30 minutes, 60 minutes and 120 minutes after the glucose administration. Blood-sugar levels were measured using ACCU-CHEK Aviva (Roche Diagnostics).
After the oral administration of the glucose solution to the mice fasted overnight, blood was collected over time, and blood-sugar levels were measured.
The correlation between the oligosaccharide chain structure and the activity was studied in mouse OGTT.

CC[C@H](C)[C@H](NC(=O)[C@H](Cc1ccccc1)NC(=O)[C@H](CCC(=O)O)NC(=O)[C@H](CCCCN)NC(=O)[C@H](C)NC(=O)[C@H](C)NC(=O)[C@H](CCC(N)=O)NC(=O)CNC(=O)[C@H](CCC(=O)O)NC(=O)[C@H](CC(C)C)NC(=O)[C@H](Cc1ccc(O)cc1)NC(=O)[C@H](CO)NC(=O)[C@H](CO)NC(=O)[C@@H](NC(=O)[C@H](CC(=O)O)NC(=O)[C@H](CO)NC(=O)[C@@H](NC(=O)[C@H](Cc1ccccc1)NC(=O)[C@@H](NC(=O)CNC(=O)[C@H](CCC(=O)O)NC(=O)[C@H](C)NC(=O)[C@@H](N)Cc1c[nH]cn1)[C@@H](C)O)[C@@H](C)O)C(C)C)C(=O)N[C@@H](C)C(=O)N[C@@H](Cc1c[nH]c2ccccc12)C(=O)N[C@@H](CC(C)C)C(=O)N[C@H](C(=O)N[C@@H](CSCC(=O)N[C@@H]1O[C@H](CO)[C@@H](O[C@@H]2O[C@H](CO)[C@@H](O[C@@H]3O[C@H](CO[C@H]4O[C@H](CO)[C@@H](O)[C@H](O)[C@@H]4O[C@@H]4O[C@H](CO)[C@@H](O[C@@H]5O[C@H](CO)[C@H](O)[C@H](O)[C@H]5O)[C@H](O)[C@H]4NC(C)=O)[C@@H](O)[C@H](O[C@H]4O[C@H](CO)[C@@H](O)[C@H](O)[C@@H]4O[C@@H]4O[C@H](CO)[C@@H](O[C@@H]5O[C@H](CO)[C@H](O)[C@H](O)[C@H]5O)[C@H](O)[C@H]4NC(C)=O)[C@@H]3O)[C@H](O)[C@H]2NC(C)=O)[C@H](O)[C@H]1NC(C)=O)C(=O)NCC(=O)N[C@@H](CCCNC(=N)N)C(=O)NCC(=O)O)C(C)C [Example 27, 34Cys GLP-1-asialo]
cAMP synthesis activity compared with GLP-1 (in words) [1]: activity equal to or more than that of the GLP-1
effect of suppressing rise in blood-sugar levels in OGTT [2]: strong effect of suppressing rise in blood-sugar levels

CC[C@H](C)[C@H](NC(=O)[C@H](Cc1ccccc1)NC(=O)[C@H](CCC(=O)O)NC(=O)[C@H](CCCCN)NC(=O)[C@H](C)NC(=O)[C@H](C)NC(=O)[C@H](CCC(N)=O)NC(=O)CNC(=O)[C@H](CCC(=O)O)NC(=O)[C@H](CC(C)C)NC(=O)[C@H](Cc1ccc(O)cc1)NC(=O)[C@H](CO)NC(=O)[C@H](CO)NC(=O)[C@@H](NC(=O)[C@H](CC(=O)O)NC(=O)[C@H](CO)NC(=O)[C@@H](NC(=O)[C@H](Cc1ccccc1)NC(=O)[C@@H](NC(=O)CNC(=O)[C@H](CCC(=O)O)NC(=O)[C@H](C)NC(=O)[C@@H](N)Cc1c[nH]cn1)[C@@H](C)O)[C@@H](C)O)C(C)C)C(=O)N[C@@H](C)C(=O)N[C@@H](Cc1c[nH]c2ccccc12)C(=O)N[C@@H](CC(C)C)C(=O)N[C@H](C(=O)N[C@@H](CCCCN)C(=O)NCC(=O)N[C@@H](CCCNC(=N)N)C(=O)NCC(=O)N[C@@H](CSCC(=O)N[C@@H]1O[C@H](CO)[C@@H](O[C@@H]2O[C@H](CO)[C@@H](O[C@@H]3O[C@H](CO[C@H]4O[C@H](CO)[C@@H](O)[C@H](O)[C@@H]4O[C@@H]4O[C@H](CO)[C@@H](O[C@@H]5O[C@H](CO[C@]6(C(=O)O)C[C@H](O)[C@@H](NC(C)=O)[C@H]([C@H](O)[C@H](O)CO)O6)[C@H](O)[C@H](O)[C@H]5O)[C@H](O)[C@H]4NC(C)=O)[C@@H](O)[C@H](O[C@H]4O[C@H](CO)[C@@H](O)[C@H](O)[C@@H]4O[C@@H]4O[C@H](CO)[C@@H](O[C@@H]5O[C@H](CO[C@]6(C(=O)O)C[C@H](O)[C@@H](NC(C)=O)[C@H]([C@H](O)[C@H](O)CO)O6)[C@H](O)[C@H](O)[C@H]5O)[C@H](O)[C@H]4NC(C)=O)[C@@H]3O)[C@H](O)[C@H]2NC(C)=O)[C@H](O)[C@H]1NC(C)=O)C(=O)O)C(C)C [Example 5, 38Cys GLP-1-disialo]
cAMP synthesis activity compared with GLP-1 (in words) [1]: activity equal to or more than that of the GLP-1
effect of suppressing rise in blood-sugar levels in OGTT [2]: strong effect of suppressing rise in blood-sugar levels

CC[C@H](C)[C@H](NC(=O)[C@H](Cc1ccccc1)NC(=O)[C@H](CCC(=O)O)NC(=O)[C@H](CSCC(=O)N[C@@H]1O[C@H](CO)[C@@H](O[C@@H]2O[C@H](CO)[C@@H](O[C@@H]3O[C@H](CO[C@H]4O[C@H](CO)[C@@H](O)[C@H](O)[C@@H]4O[C@@H]4O[C@H](CO)[C@@H](O[C@@H]5O[C@H](CO)[C@H](O)[C@H](O)[C@H]5O)[C@H](O)[C@H]4NC(C)=O)[C@@H](O)[C@H](O[C@H]4O[C@H](CO)[C@@H](O)[C@H](O)[C@@H]4O[C@@H]4O[C@H](CO)[C@@H](O[C@@H]5O[C@H](CO)[C@H](O)[C@H](O)[C@H]5O)[C@H](O)[C@H]4NC(C)=O)[C@@H]3O)[C@H](O)[C@H]2NC(C)=O)[C@H](O)[C@H]1NC(C)=O)NC(=O)[C@H](C)NC(=O)[C@H](C)NC(=O)[C@H](CCC(N)=O)NC(=O)CNC(=O)[C@H](CCC(=O)O)NC(=O)[C@H](CC(C)C)NC(=O)[C@H](Cc1ccc(O)cc1)NC(=O)[C@H](CO)NC(=O)[C@H](CO)NC(=O)[C@@H](NC(=O)[C@H](CC(=O)O)NC(=O)[C@H](CO)NC(=O)[C@@H](NC(=O)[C@H](Cc1ccccc1)NC(=O)[C@@H](NC(=O)CNC(=O)[C@H](CCC(=O)O)NC(=O)[C@H](C)NC(=O)[C@@H](N)Cc1c[nH]cn1)[C@@H](C)O)[C@@H](C)O)C(C)C)C(=O)N[C@@H](C)C(=O)N[C@@H](Cc1c[nH]c2ccccc12)C(=O)N[C@@H](CC(C)C)C(=O)N[C@H](C(=O)N[C@@H](CCCCN)C(=O)NCC(=O)N[C@@H](CCCNC(=N)N)C(=O)NCC(=O)O)C(C)C [Example 25, 26Cys GLP-1-asialo]
cAMP synthesis activity compared with GLP-1 (in words) [1]: activity equal to or more than that of the GLP-1
effect of suppressing rise in blood-sugar levels in OGTT [2]: strong effect of suppressing rise in blood-sugar levels
